Patent US20200060276A1, “THIAZOLE COMPOUND AND HERBICIDE” (OAT Agrio Co., Ltd., priority 2017, published 2020)

How the values were obtained:
Assay type in all cases: in vivo
[1] = tested on: Echinochloa crus-galli (L.) P. Beauv. var. formosensis Ohwi; test: Test for Herbicidal Effect in Flooding Treatment (#1), ECHDG; conditions: for ECHDG #1 herbicidal effect (growth inhibition grade): flooding treatment at seeding, dose 2 kg/ha, visual observation on day 21; for ECHDG #1 herbicidal effect (growth inhibition rating 0-5): flooding treatment #1
Method in brief: (§1)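 Visual scores from 0 (<10% inhibition) to 5 (≥90% or complete withering) were taken 21 days after treatment of glasshouse-grown plants. Seeds were sown in soil flooded for 24 h beforehand, and compound was applied dropwise onto the surface at 2 kg/ha as an acetone solution diluted in water with Tween 80.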

[2] = tested on: Monochoria vaginalis; test: Test for Herbicidal Effect in Flooding Treatment (#1), MONVA; conditions: for MONVA #1 herbicidal effect (growth inhibition grade): flooding treatment at seeding, dose 2 kg/ha, visual observation on day 21; for MONVA #1 herbicidal effect (growth inhibition rating 0-5): flooding treatment #1
Protocol: (#1) Test for Herbicidal Effect in Flooding Treatment: Styrol cups each having an opening diameter of 8 cm (about 52 cm^2) were respectively filled with soil (45 ml) which had been passed through a sieve (2 mm). Water (about 115 ml) was mixed with the soil such that the soil was flooded. After the soil stood still for 24 hours, Monochoria vaginalis, Echinochloa crus-galli (L.) P. Beauv. var. formosensis Ohwi, Cyperus difformis (umbrella sedge), and Scirpus juncoides were seeded. Each of the compounds of the present invention was dissolved in acetone, and the obtained product was then diluted with water containing Tween 80®. Each of the resultant chemical solutions was dropped on the entire surface of an associated one of treatment sections, so that each section was treated with 1 ml of the respective chemical solution (a dose of 2 kg/ha). After the treatment, the plants were grown in a glasshouse. On day 21, a survey was conducted on the herbicidal activity by visual observation, and evaluation was made according to the following criteria. 0: Growth inhibition effect is less than 10%. 1: Growth inhibition effect is equal to or greater than 10%, and less than 30%. 2; Growth inhibition effect is equal to or greater than 30%, and less than 50%. 3: Growth inhibition effect equal to or greater than 50%, and less than 70%. 4: Growth inhibition effect is equal to or greater than 70%, and less than 90%. 5: Growth inhibition effect is equal to or greater than 90%, or complete withering is achieved. ECHDG=Echinochloa crus-galli (L.) P. Beauv. var. formosensis Ohwi, MONVA=Monochoria vaginalis, SCIJU=Scirpus juncoides, CYMIC=Cyperus microiria.

[3] = tested on: Scirpus juncoides; test: Test for Herbicidal Effect in Flooding Treatment (#1), SCIJU; conditions: for SCIJU #1 herbicidal effect (growth inhibition grade): flooding treatment at seeding, dose 2 kg/ha, visual observation on day 21; for SCIJU #1 herbicidal effect (growth inhibition rating 0-5): flooding treatment #1
Method in brief: as §1

[4] = tested on: Echinochloa crus-galli (L.) P. Beauv. var. formosensis Ohwi; test: Test for Herbicidal Effect in Flooding Treatment (#2), ECHDG at 2-2.5 leaf stage; conditions: for ECHDG (2-2.5L) #2 herbicidal effect (growth inhibition grade): flooding treatment at 2-2.5 leaf stage, dose 0.2 kg/ha, visual observation on day 21; for ECHDG (2-2.5L) #2 herbicidal effect (growth inhibition rating 0-5): flooding treatment #2, 2-2.5 leaf stage
Method in brief: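 Flooded muddy soil was seeded with the weed, and at 2–2.5 leaf stage compound in acetone/Tween 80 water was dropped on the water surface at 0.2 kg/ha. Plants were kept in a glasshouse and scored visually on day 21 from 0 (<10% growth inhibition) to 5 (≥90% or complete withering).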

Structure (SMILES)	ECHDG #1 herbicidal effect (growth inhibition grade) [1]	MONVA #1 herbicidal effect (growth inhibition grade) [2]	SCIJU #1 herbicidal effect (growth inhibition grade) [3]	ECHDG (2-2.5L) #2 herbicidal effect (growth inhibition grade) [4]	ECHDG #1 herbicidal effect (growth inhibition rating 0-5) [1]	MONVA #1 herbicidal effect (growth inhibition rating 0-5) [2]	SCIJU #1 herbicidal effect (growth inhibition rating 0-5) [3]	ECHDG (2-2.5L) #2 herbicidal effect (growth inhibition rating 0-5) [4]
COC(=O)C(c1c(F)cccc1OC(F)F)S(=O)(=O)c1ncc(Cl)s1 (racemic) [Compound 1C-145]	5 (Growth inhibition effect is equal to or greater than 90%, or complete withering is achieved)	5 (Growth inhibition effect is equal to or greater than 90%, or complete withering is achieved)	5 (Growth inhibition effect is equal to or greater than 90%, or complete withering is achieved)	5 (Growth inhibition effect is equal to or greater than 90%, or complete withering is achieved)				
CC(=O)C(c1c(F)cccc1OC(F)F)S(=O)(=O)c1ncc(Cl)s1 (racemic) [Compound 1C-146]	5 (Growth inhibition effect is equal to or greater than 90%, or complete withering is achieved)	5 (Growth inhibition effect is equal to or greater than 90%, or complete withering is achieved)	5 (Growth inhibition effect is equal to or greater than 90%, or complete withering is achieved)	5 (Growth inhibition effect is equal to or greater than 90%, or complete withering is achieved)				
CC(c1c(F)cccc1OCCC(F)(F)F)S(=O)(=O)c1ncc(Cl)s1 (racemic) [Compound 1C-149]	5 (Growth inhibition effect is equal to or greater than 90%, or complete withering is achieved)	5 (Growth inhibition effect is equal to or greater than 90%, or complete withering is achieved)	5 (Growth inhibition effect is equal to or greater than 90%, or complete withering is achieved)	4 (Growth inhibition effect is equal to or greater than 70%, and less than 90%)				
COc1cccc(Cl)c1C[S+]([O-])c1ncc(Cl)s1 (stereo not shown) [Compound 1B-1]					5 (Growth inhibition effect is equal to or greater than 90%, or complete withering is achieved)	3 (Growth inhibition effect equal to or greater than 50%, and less than 70%)	4 (Growth inhibition effect is equal to or greater than 70%, and less than 90%)	4 (Growth inhibition effect is equal to or greater than 70%, and less than 90%)
[O-][S+](Cc1ccccc1OC(F)F)c1ncc(Cl)s1 (stereo not shown) [Compound 1B-2]					5 (Growth inhibition effect is equal to or greater than 90%, or complete withering is achieved)	5 (Growth inhibition effect is equal to or greater than 90%, or complete withering is achieved)	5 (Growth inhibition effect is equal to or greater than 90%, or complete withering is achieved)	5 (Growth inhibition effect is equal to or greater than 90%, or complete withering is achieved)
[O-][S+](Cc1c(F)cccc1OC(F)F)c1ncc(Cl)s1 (stereo not shown) [Compound 1B-3]					5 (Growth inhibition effect is equal to or greater than 90%, or complete withering is achieved)	5 (Growth inhibition effect is equal to or greater than 90%, or complete withering is achieved)	5 (Growth inhibition effect is equal to or greater than 90%, or complete withering is achieved)	5 (Growth inhibition effect is equal to or greater than 90%, or complete withering is achieved)
[O-][S+](Cc1c(OCC(F)F)cccc1C(F)(F)F)c1ncc(Cl)s1 (stereo not shown) [Compound 1B-8]					5 (Growth inhibition effect is equal to or greater than 90%, or complete withering is achieved)	5 (Growth inhibition effect is equal to or greater than 90%, or complete withering is achieved)	5 (Growth inhibition effect is equal to or greater than 90%, or complete withering is achieved)	5 (Growth inhibition effect is equal to or greater than 90%, or complete withering is achieved)
[O-][S+](Cc1c(Cl)cccc1OCC(F)(F)F)c1ncc(Cl)s1 (stereo not shown) [Compound 1B-10]					5 (Growth inhibition effect is equal to or greater than 90%, or complete withering is achieved)	5 (Growth inhibition effect is equal to or greater than 90%, or complete withering is achieved)	5 (Growth inhibition effect is equal to or greater than 90%, or complete withering is achieved)	5 (Growth inhibition effect is equal to or greater than 90%, or complete withering is achieved)
[O-][S+](Cc1c(F)cccc1OCC(F)(F)C(F)F)c1ncc(Cl)s1 (stereo not shown) [Compound 1B-12]					5 (Growth inhibition effect is equal to or greater than 90%, or complete withering is achieved)	5 (Growth inhibition effect is equal to or greater than 90%, or complete withering is achieved)	5 (Growth inhibition effect is equal to or greater than 90%, or complete withering is achieved)	5 (Growth inhibition effect is equal to or greater than 90%, or complete withering is achieved)
[O-][S+](Cc1c(F)cccc1OCC(F)(F)C(F)F)c1ncc(Cl)s1 (stereo not shown) [Compound 1B-13]					5 (Growth inhibition effect is equal to or greater than 90%, or complete withering is achieved)	5 (Growth inhibition effect is equal to or greater than 90%, or complete withering is achieved)	5 (Growth inhibition effect is equal to or greater than 90%, or complete withering is achieved)	2 (Growth inhibition effect is equal to or greater than 30%, and less than 50%)
CC(c1c(F)cccc1OC(F)F)[S+]([O-])c1ncc(Cl)s1 (stereo not shown) [Compound 1B-16]					5 (Growth inhibition effect is equal to or greater than 90%, or complete withering is achieved)	5 (Growth inhibition effect is equal to or greater than 90%, or complete withering is achieved)	5 (Growth inhibition effect is equal to or greater than 90%, or complete withering is achieved)	3 (Growth inhibition effect equal to or greater than 50%, and less than 70%)
COc1cccc(Cl)c1C[S+]([O-])c1ncc(Br)s1 (stereo not shown) [Compound 1B-17]					5 (Growth inhibition effect is equal to or greater than 90%, or complete withering is achieved)	3 (Growth inhibition effect equal to or greater than 50%, and less than 70%)	5 (Growth inhibition effect is equal to or greater than 90%, or complete withering is achieved)	5 (Growth inhibition effect is equal to or greater than 90%, or complete withering is achieved)
[O-][S+](Cc1c(F)cccc1OC(F)F)c1ncc(Br)s1 (stereo not shown) [Compound 1B-19]					5 (Growth inhibition effect is equal to or greater than 90%, or complete withering is achieved)	5 (Growth inhibition effect is equal to or greater than 90%, or complete withering is achieved)	5 (Growth inhibition effect is equal to or greater than 90%, or complete withering is achieved)	5 (Growth inhibition effect is equal to or greater than 90%, or complete withering is achieved)
